Series [1] relates to SAg: Venular endothelial cells, peripheral blood mononuclear cells (TCR ligands). Kind of series: BioMAP SAg system. Format: cell-based, human. Here is the method:
(§1) Anti-inflammatory phenotypic profiling was conducted across 12 human primary cell-based systems as part of DiscoverX's BioMAP Diversity Plus program. These systems are designed to model complex human tissue and disease biology of the vasculature, skin, lung, and inflammatory tissues. Quantitative measurements of biomarker activities across this broad panel were used to assess each biochemical's anti-inflammatory activity at four concentrations ([…] and 2.2, 6.7 and 20 μM). […] Protein-based biomarkers from activated cell systems were measured and compared with controls. Biomarker activities were annotated when 2 or more consecutive concentrations change in the same directions relative to vehicle controls, were outside of the significance envelope and had at least one concentration with an effect size>20% (log 10 ratio)>0.1.
In this system, human primary peripheral blood mononuclear cells and human umbilical vein endothelial cells were stimulated with T-cell receptor ligands and incubated with the test agent, drug control, or vehicle control for 24 hours. A negative, non-stimulated system was also included. […] This antiproliferative activity was lost at higher concentrations (20 μM). In this system, T cell proliferation is considered a critical event driving an inflammatory response.
(§2) The Diversity PLUS panel allows test agent characterization in an unbiased way across a broad set of systems modeling various human disease states. These systems are designed to model complex human tissue and disease biology of the vasculature, skin, lung, and inflammatory tissues. Quantitative measurements of 148 biomarker activities across this broad panel, along with comparative analysis of biological activities from known bioactive agents, were used to predict and compare the efficacy and function of each selected compound at selected concentrations (6.7 and/or 20 μM). […]
(§3) Each test agent generates a signature BioMAP profile that is created from the changes in protein biomarker readouts within individual system environments. Biomarker readouts (7-17 per system) are selected for therapeutic and biological relevance, are predictive for disease outcomes or specific drug effects and are validated using agents with known mechanism of action (MoA). Each readout is measured quantitatively by immune-based methods that detect protein (e.g., ELISA) or functional assays that measure proliferation and viability. BioMAP readouts are diverse and include cell surface receptors, cytokines, chemokines, matrix molecules and enzymes. In total, the Diversity PLUS panel contains 148 biomarker readouts that capture biological changes that occur within the physiological context of the particular BioMAP system. […]

For series [2] the following is noted: white powder; cited from earlier work.
The subject of series [3] is KF3CT: Keratinocytes, dermal fibroblasts. Kind of series: BioMAP KF3CT system. The conditions noted are these: at the compound's active concentration. Format: cell-based, human.
Excerpt: as §2
as §3, with “enzymes.” for “enzymes. In total, the Diversity PLUS panel contains 148 biomarker readouts that capture biological changes that occur within the physiological context of the particular BioMAP system.”

Series [4] concerns human primary cell-based systems. As to the kind of experiment: BioMAP Diversity PLUS panel, phenotypic profiling. The settings on record: tested at 6.7 and/or 20 μM; 24 to 72 hours. Here is the method:
Anti-inflammatory phenotypic profiling was conducted across 12 human primary cell-based systems as part of DiscoverX's BioMAP Diversity Plus program. These systems are designed to model complex human tissue and disease biology of the vasculature, skin, lung, and inflammatory tissues. Quantitative measurements of biomarker activities across this broad panel were used to assess each biochemical's anti-inflammatory activity at four concentrations ([…] and 2.2, 6.7 and 20 μM). […] Protein-based biomarkers from activated cell systems were measured and compared with controls.
(§4) The Diversity PLUS panel allows test agent characterization in an unbiased way across a broad set of systems modeling various human disease states. These systems are designed to model complex human tissue and disease biology of the vasculature, skin, lung, and inflammatory tissues. Quantitative measurements of 148 biomarker activities across this broad panel, along with comparative analysis of biological activities from known bioactive agents, were used to predict and compare the efficacy and function of each selected compound at selected concentrations (6.7 and/or 20 μM).
(§5) BioMAP systems are constructed with one or more primary cell types from healthy human donors, with stimuli (such as cytokines or growth factors) added to capture relevant signaling networks that naturally occur in human tissue or pathological conditions. Vascular biology is modeled in both a Th1 (3C system) and a Th2 (4H system) inflammatory environment, as well as in a Th1 inflammatory state specific to arterial smooth muscle cells (CASM3C system). Additional systems recapitulate aspects of the systemic immune response including monocyte-driven Th1 inflammation (LPS system) or T cell stimulation (SAg system), chronic Th1 inflammation driven by macrophage activation (lMphg system) and the T cell-dependent activation of B cells that occurs in germinal centers (BT system). The BE3C system (Th1) and the BF4T system (Th2) represent airway inflammation of the lung, while the MyoF system models myofibroblast-lung tissue remodeling. Lastly, skin biology is addressed in the KF3CT system modeling Th1 cutaneous inflammation and the HDF3CGF system modeling wound healing.
(§6) Each test agent generates a signature BioMAP profile that is created from the changes in protein biomarker readouts within individual system environments. Biomarker readouts (7-17 per system) are selected for therapeutic and biological relevance, are predictive for disease outcomes or specific drug effects and are validated using agents with known mechanism of action (MoA). Each readout is measured quantitatively by immune-based methods that detect protein (e.g., ELISA) or functional assays that measure proliferation and viability. BioMAP readouts are diverse and include cell surface receptors, cytokines, chemokines, matrix molecules and enzymes. In total, the Diversity PLUS panel contains 148 biomarker readouts that capture biological changes that occur within the physiological context of the particular BioMAP system.
(§7) Activated BioMAP systems were incubated with each compound for 24 to 72 hours. Protein-based biomarkers from activated cell systems were measured and compared with non-treated control systems.

Series [5] has as its system BT: Peripheral blood mononuclear cells, B cells (α-IgM, TCR ligands). Kind of series: BioMAP BT system. The conditions noted are these: BT system; at the compound's active concentration. Format: cell-based, human. On the procedure:
as §1
In the first system, human primary peripheral blood mononuclear cells and venular endothelial cells were stimulated with lipopolysaccharide (LPS) and incubated with the test agent, drug control, or vehicle control for 24 hours. In the second system, peripheral blood mononuclear cells and B cells were stimulated with α-IgM and T cell receptor ligands and incubated with the test agent, drug control, or vehicle control for 24 hours. In both systems, a negative, non-stimulated system was also included.
as §4, §5, §3

Series [6] has as its system HDF3CGF: Dermal fibroblasts. Kind of series: BioMAP HDF3CGF system. Format: cell-based, human. The conditions noted are these: at the compound's active concentration.
Excerpt: as §4, §5
as §6, with “system. Specific BioMAP activities have been correlated to in vivo biology, and multiparameter BioMAP profiles have been used to distinguish compounds based on MoA and target selectivity across diverse physiological systems.” for “system.”
as §7

Series [7] has as its system BE3C: Bronchial epithelial cells (IL-1β, IFNγ, TNFα). Kind of series: BioMAP BE3C system. Format: cell-based, human. The conditions noted are these: at the compound's active concentration.
Excerpt: The Diversity PLUS panel allows test agent characterization in an unbiased way across a broad set of systems modeling various human disease states. These systems are designed to model complex human tissue and disease biology of the vasculature, skin, lung, and inflammatory tissues.
as §5
as §6, with “enzymes.” for “enzymes. In total, the Diversity PLUS panel contains 148 biomarker readouts that capture biological changes that occur within the physiological context of the particular BioMAP system.”
as §7

Series [8] has as its system MyoF: Lung fibroblasts (TGFβ, TNFα). As to the kind of experiment: BioMAP MyoF system. It counts as cell-based, human. The conditions noted are these: at the compound's active concentration.
Excerpt: as §4, §5, §3, §7

With `N[C@@H](CC(O)C(=O)O)C(=O)O` (some centres unmarked) [4-hydroxyglutamate], the “T cell antiproliferative activity” value in series [1] (higher concentrations (20 μM), 24 hours) was “lost”. For the same compound, in series [2], the “Stability of the pure powder” value is “stable at room temperature”.

Take `Nc1ncnc2c1ncn2[C@@H]1O[C@H](CSCC[C@H](N)C(=O)O)[C@@H](O)[C@H]1O` [S-adenosylhomocysteine (SAH), S-adenosylhomocysteine]: in series [3], the “MMP-9, log10 reduction vs nontreated controls” value is −0.10 log10 and the “PAI-1, log10 reduction vs nontreated controls” value was −0.28 log10. In series [1] (SAg system, at the compound's active concentration), the “T cell proliferation, log10 reduction vs nontreated controls” value was −0.21 log10. In addition, the Active concentrations in series [4] was determined as 20 µM. In addition, the “Secreted IgG, log10 reduction vs nontreated controls” value in series [5] is recorded as −0.29 log10. Moreover, in series [6], the “CXCL10, log10 reduction vs nontreated controls” value was −0.19 log10; the “CXCL11, log10 reduction vs nontreated controls” value is listed as −0.25 log10; the “Collagen III, log10 reduction vs nontreated controls” value was −0.21 log10; the “Fibroblast proliferation, log10 reduction vs nontreated controls” value is −1.10 log10. In addition, in series [6], the “M-CSF, log10 reduction vs nontreated controls” value is recorded as −0.19 log10; the “MCP-1, log10 reduction vs nontreated controls” value was −0.14 log10; the “TIMP-1, log10 reduction vs nontreated controls” value is −0.14 log10; the “VCAM-1, log10 reduction vs nontreated controls” value is −0.17 log10. Besides, in series [7], the “CXCL11, log10 reduction vs nontreated controls” value is on record as −0.13 log10; the “HLA-DR, log10 reduction vs nontreated controls” value is reported as −0.13 log10; the “IL-8, log10 reduction vs nontreated controls” value is listed as −0.13 log10; the “MMP-9, log10 reduction vs nontreated controls” value was −0.24 log10. In series [8], the “Alpha-SM actin, log10 reduction vs nontreated controls” value is −0.18 log10; the “Collagen I, log10 reduction vs nontreated controls” value is reported as −0.15 log10; the “Collagen III, log10 reduction vs nontreated controls” value is given as −0.27 log10; the “VCAM-1, log10 reduction vs nontreated controls” value is reported as −0.12 log10.

The values above are taken from US12427179B2, “Compositions and methods for diagnosis and treatment of neurodegenerative diseases” (EPITRACKER, INC., priority 2019, dated 2025).
